{"source": "patent US12054562B2", "about": "“Cell-permeable inhibitory agent and methods of use thereof in treatment of cognitive and mood disorders” (priority 2015, dated 2024)", "key": {"[1]": {"target": "T1, gephyrin and α5 subunit interaction (Mus musculus, UniProt Q8BUV3)", "T1 construct": "from tissue; host or cells: hippocampus of adult mice", "T1 sequence (Q8BUV3 1-769)": "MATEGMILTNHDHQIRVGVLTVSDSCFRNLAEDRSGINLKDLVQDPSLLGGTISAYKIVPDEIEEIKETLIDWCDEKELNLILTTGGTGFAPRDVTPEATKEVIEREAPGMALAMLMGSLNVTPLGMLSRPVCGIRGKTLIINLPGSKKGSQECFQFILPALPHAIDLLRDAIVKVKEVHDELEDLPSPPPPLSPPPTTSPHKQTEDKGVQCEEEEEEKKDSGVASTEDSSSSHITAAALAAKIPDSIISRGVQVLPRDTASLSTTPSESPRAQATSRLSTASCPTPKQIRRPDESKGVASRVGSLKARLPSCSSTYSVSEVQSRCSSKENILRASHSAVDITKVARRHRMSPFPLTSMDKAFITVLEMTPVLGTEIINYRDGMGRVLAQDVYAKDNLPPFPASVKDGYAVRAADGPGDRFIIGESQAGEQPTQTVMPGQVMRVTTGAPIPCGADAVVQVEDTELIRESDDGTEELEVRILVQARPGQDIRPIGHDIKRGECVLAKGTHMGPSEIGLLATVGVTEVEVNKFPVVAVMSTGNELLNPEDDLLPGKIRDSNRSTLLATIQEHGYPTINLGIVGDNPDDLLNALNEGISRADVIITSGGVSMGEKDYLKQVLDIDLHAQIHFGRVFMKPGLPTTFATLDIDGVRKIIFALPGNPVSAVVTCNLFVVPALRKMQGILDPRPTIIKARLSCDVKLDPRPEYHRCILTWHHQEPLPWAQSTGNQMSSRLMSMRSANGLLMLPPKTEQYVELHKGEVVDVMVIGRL", "assay": "Co-IP and WB of gephyrin and α5 subunit interaction", "type": "binding", "settings": "immunoprecipitates from Example 1, hippocampal tissue", "protocol": "For the immunoprecipitation experiment, the tissue lysate containing […] protein (in 250 μl) was incubated with 20 μM (20 μl) of either the inhibitory peptide (SEQ ID NO:1) or scramble peptide (SEQ ID NO:5) without TAT sequence. One hour following the incubation, the antibodies (2-4 μg) against either α5 subunit (cat #sc—31417, Santa Cruz Biotechnology, Inc., 10410 Finnell St. Dallas, TX, 75220, USA) or radixin (cat #ab91312, Abcam Inc., c/o 913860, PO Box 4090 Stn A, Toronto, ON M5W 0E9), or 4 μg of non-specific IgG protein (cat #sc—2028, Santa Cruz Biotechnology, Inc., 10410 Finnell St. Dallas, TX, 75220, USA), were added to the lysate solution. After gently shaking overnight at 4° C., the immune complexes were precipitated with protein A/G plus-agarose beads (Santa Cruz Biotechnology, Inc., 10410 Finnell St. Dallas, TX, 75220, USA). Forty microliters of the A/G plus agarose beads were added to the immune complex solution and shaking gently for 2 h at 4° C. After spin with the microcentrifuge (Eppendorf Mini-Spin Plus, Marshall Scientific, 424 Route 125, Brentwood, NH 03833, USA), the immunoprecipitates were washed four times with ice-cold PBS, then resuspended in 2× Laemmli sample loading buffer containing 5% […], and boiled for 5 min. These samples were subjected to Western blot experiment. […]"}, "[2]": {"system": "etomidate-induced memory deficits in mice", "assay": "Novel object recognition task, treatment paradigm", "type": "in vivo, mouse", "settings": "peptide given the day after etomidate, 4 hrs before behavioral testing", "protocol": "In the present study, mice were handled two times a day, 5 min each before start of behavioral experiments. Object recognition was assessed in a circle opaque chamber with the diameter of 38.5 cm in a regular lit room. Each mouse was habituated to the chamber for 5 min since day 3. During the training phase, the mouse was allowed to explore two identical objects for 5 min. The mouse was then returned to its home cage for a retention period of 1 h. The mouse was reintroduced to the training context and presented with one familiar object and one novel object for 5 min. Movement and interaction with the objects was recorded with a video camera that was mounted above the chamber. The exploratory behavior and mouse activity was analyzed blindly by a person with a good training and the software EthoVision, XT v11.5 provided by the Noldus Information Tech Inc., (Leesburg VA, USA). Exploratory behavior was defined as sniffing, licking, or touching the object while facing the object. Memory was assessed by measuring the novelty preference ratio (i.e., the ratio of time spent exploring the novel object to the time spent exploring both objects). […] Total interaction time with both objects was compared between groups to determine whether the treatments affected locomotor activity or exploration during the testing phase. […]"}}, "data": [{"sequence": "NYFTKRGWAWDGKKAL [inhibitory peptide]", "values": [{"measurement": "gephyrin and α5 subunit interaction", "setting": "[1]", "result": "did not interfere"}, {"measurement": "memory deficits in etomidate-treated mice (NOR, treatment)", "setting": "[2]", "result": "reversed"}]}]}
